Assay results: US8178506B2, “Oligomeric compounds and compositions for use in modulation of small non-coding RNAs” (Regulus Therapeutics Inc., priority 2003, dated 2012)
In the oligonucleotide strings, read from the 5' end, every base follows the letter of its sugar. An asterisk marks phosphorothioate; unmarked linkages are phosphodiester. Other units and linkages are bracketed, terminal groups are in braces. A string of capitals states the bases alone. e = 2'-O-(2-methoxyethyl) (MOE); [5mC] = 5-methylcytosine; d = 2'-deoxy (DNA)

What follows are substances tested on T47D cells (assay: Caspase-3 activity assay (apoptosis) in T47D cells). Details: T47D cells, 200 nM oligomeric compound, 48 hours; experiment of Table 10.

Substance	Fold Increase over UTC (caspase-3 activity, apoptosis) [fold]
328431 (antisense eA*e[5mC]*e[5mC]*eT*e[5mC]*dT*d[5mC]*dA*dG*dG*dA*dA*dG*dA*d[5mC]*eG*eG*eA*e[5mC]*eT) [compound 328431]	0.9
328399 (antisense eA*eT*eG*eG*eG*dT*dA*d[5mC]*d[5mC]*dA*d[5mC]*d[5mC]*dA*dG*dA*eA*e[5mC]*eA*eT*eG) [compound 328399]	1.0
328408 (antisense eT*eA*eG*eA*e[5mC]*dA*dA*dA*dA*dA*d[5mC]*dA*dG*dA*d[5mC]*eT*e[5mC]*eT*eG*eA) [compound 328408]	0.9
328422 (antisense eG*eA*eG*eG*eA*dT*dG*dT*d[5mC]*dT*dG*dT*dG*dA*dA*eT*eA*eG*e[5mC]*e[5mC]) [compound 328422]	1.0
328409 (antisense eG*e[5mC]*eT*eA*eG*dT*dG*dA*d[5mC]*dA*dG*dG*dT*dG*d[5mC]*eA*eG*eA*e[5mC]*eA) [compound 328409]	0.7
328694 (e[5mC]*eA*eA*eA*e[5mC]*dG*dG*dT*dA*dA*dG*dA*dT*dT*dT*eG*e[5mC]*eA*eG*eA; antisense) [compound 328694]	0.8
328657 (eA*eA*eA*eA*eA*dT*dA*dA*dT*d[5mC]*dT*d[5mC]*dT*dG*d[5mC]*eA*e[5mC]*eA*eG*eG; antisense) [compound 328657]	0.8

Same assay, conditions: T47D cells, 200 nM oligomeric compound, 48 hours; experiment of Table 11

Substance	Fold Increase over UTC (caspase-3 activity, apoptosis) [fold]
328695 (eG*eG*eA*eT*eT*dT*dA*dA*dA*d[5mC]*dG*dG*dT*dA*dA*eA*e[5mC]*eA*eT*e[5mC]; antisense) [compound 328695]	0.8
328645 (eT*eG*e[5mC]*eT*e[5mC]*dA*dG*d[5mC]*d[5mC]*dA*dG*d[5mC]*d[5mC]*d[5mC]*d[5mC]*eA*eT*eT*e[5mC]*eT) [compound 328645]	2.2
328654 (eT*e[5mC]*e[5mC]*eA*eG*dG*dA*dT*dG*d[5mC]*dA*dA*dA*dA*dG*e[5mC]*eA*e[5mC]*eG*eA; antisense) [compound 328654]	1.0
328413 (antisense eA*eA*eT*eT*eG*dT*dA*dT*dG*dA*d[5mC]*dA*dT*dT*dA*eA*eA*eT*e[5mC]*eA) [compound 328413]	0.8
328407 (antisense eA*eA*eT*eG*eG*dA*dG*d[5mC]*d[5mC]*dA*dA*dG*dG*dT*dG*e[5mC]*eT*eG*e[5mC]*e[5mC]) [compound 328407]	1.2
328393 (eG*e[5mC]*eT*eG*eG*d[5mC]*d[5mC]*dT*dG*dA*dT*dA*dG*d[5mC]*d[5mC]*e[5mC]*eT*eT*e[5mC]*eT; antisense) [compound 328393]	1.5
328427 (antisense eG*eA*eT*eG*eT*d[5mC]*dA*d[5mC]*dT*dG*dA*dG*dG*dA*dA*eA*eT*e[5mC]*eA*e[5mC]) [compound 328427]	0.8

Same assay, conditions: T47D cells, 200 nM oligomeric compound, 48 hours; experiment of Table 12

Substance	Fold Increase over UTC (caspase-3 activity, apoptosis) [fold]
328642 (eA*e[5mC]*eT*e[5mC]*e[5mC]*d[5mC]*dA*dG*dG*dG*dT*dG*dT*dA*dA*e[5mC]*eT*e[5mC]*eT*eA; antisense) [compound 328642]	1.0
328373 (eG*eG*eG*eA*eA*dG*dG*dA*dT*dT*dG*d[5mC]*d[5mC]*dT*dA*eG*e[5mC]*eA*eG*eT; antisense) [compound 328373]	0.9
328389 (eG*eG*e[5mC]*eA*e[5mC]*dT*dT*d[5mC]*dA*dT*dT*dG*d[5mC]*dT*dG*e[5mC]*eT*eG*e[5mC]*e[5mC]; antisense) [compound 328389]	1.1
328379 (e[5mC]*eT*eG*eA*e[5mC]*dT*dG*dA*dG*dA*d[5mC]*dT*dG*dT*dT*e[5mC]*eA*e[5mC]*eA*eG; antisense) [compound 328379]	1.1
328690 (eG*e[5mC]*e[5mC]*eT*e[5mC]*d[5mC]*dT*dT*d[5mC]*dA*dT*dA*dT*dA*dT*eT*e[5mC]*eT*e[5mC]*eA; antisense) [compound 328690]	0.8
328412 (antisense eT*eT*eT*eA*e[5mC]*dT*d[5mC]*dA*dT*dA*d[5mC]*d[5mC]*dT*d[5mC]*dG*e[5mC]*eA*eA*e[5mC]*e[5mC]) [compound 328412]	1.2
328430 (antisense e[5mC]*e[5mC]*eG*eG*e[5mC]*dT*dA*dT*dT*dG*dA*dG*dT*dT*dA*eT*eG*eT*eA*e[5mC]) [compound 328430]	1.3

Same assay, conditions: T47D cells, 200 nM, 48 hours, relative to untreated control

Substance	Fold Increase over UTC (caspase activity)
328416 (antisense eA*e[5mC]*eA*eT*eT*dG*d[5mC]*dT*dA*dT*d[5mC]*dA*dT*dA*dA*eG*eA*eG*e[5mC]*eT) [compound 328416]	0.9
328656 (eT*eT*eT*e[5mC]*eA*dG*dG*d[5mC]*dT*d[5mC]*dA*d[5mC]*d[5mC]*dT*d[5mC]*e[5mC]*e[5mC]*e[5mC]*eA*eG; antisense) [compound 328656]	1.1
328391 (eA*eT*eG*eG*eT*dA*dA*dT*dT*dT*d[5mC]*dA*dT*dT*dT*e[5mC]*eA*eG*eG*e[5mC]; antisense) [compound 328391]	0.8
328371 (eT*e[5mC]*e[5mC]*eA*eT*dA*dG*d[5mC]*dT*dT*dA*dG*d[5mC]*dA*dG*eG*eT*e[5mC]*e[5mC]*eA; antisense) [compound 328371]	1.2

Same assay, conditions: caspase assay, 200 nM; conclusion from Tables 9-12

Substance	apoptosis in T47D cells
AGAATGAGTTGACATACCAA (antisense; same sequence listed as MOE 5-10-5 gapmer and as uniform MOE, further chemistry not given here) [ISIS 328658]	induce apoptosis
SEQ ID NO 510: gapmer of Tables 9-12 having this SEQ ID NO (antisense eG*e[5mC]*e[5mC]*e[5mC]*eT*d[5mC]*dG*dA*d[5mC]*dG*dA*dA*dA*dA*d[5mC]*e[5mC]*eG*eA*e[5mC]*eT)	prevent or have a protective effect from apoptosis
AATCCATTGAAGAGGCGATT (antisense; same sequence listed as MOE 5-10-5 gapmer and as uniform MOE, further chemistry not given here) [ISIS 328650]	prevent or have a protective effect from apoptosis
SEQ ID NO 502: gapmer of Tables 9-12 having this SEQ ID NO (antisense eG*e[5mC]*eT*eG*eG*d[5mC]*d[5mC]*dT*dG*dA*dT*dA*dG*d[5mC]*d[5mC]*e[5mC]*eT*eT*e[5mC]*eT)	induce apoptosis
GTGTTCAGAAACCCAGGCCC (antisense; same sequence listed as MOE 5-10-5 gapmer and as uniform MOE, further chemistry not given here) [ISIS 328653]	induce apoptosis
ISIS 328391: 5-10-5 2′-MOE gapmer PS; targets hypothetical miRNA-044 pri-miRNA (eA*eT*eG*eG*eT*dA*dA*dT*dT*dT*d[5mC]*dA*dT*dT*dT*e[5mC]*eA*eG*eG*e[5mC])	prevent or have a protective effect from apoptosis
SEQ ID NO 543: gapmer of Tables 9-12 having this SEQ ID NO (e[5mC]*eG*e[5mC]*eA*eT*d[5mC]*dT*dT*dG*dA*d[5mC]*dT*dG*dT*dA*eG*e[5mC]*eA*eT*eG)	prevent or have a protective effect from apoptosis
GGATTTAAACGGTAAACATC (antisense; same sequence listed as MOE 5-10-5 gapmer and as uniform MOE, further chemistry not given here) [ISIS 328695]	prevent or have a protective effect from apoptosis
SEQ ID NO 496: gapmer of Tables 9-12 having this SEQ ID NO (antisense eT*eT*eA*eT*e[5mC]*dG*dG*dA*dA*d[5mC]*dT*dT*d[5mC]*dA*d[5mC]*eA*eG*eA*eG*eA)	induce apoptosis
SEQ ID NO 539: gapmer of Tables 9-12 having this SEQ ID NO (e[5mC]*e[5mC]*eG*eG*e[5mC]*dT*dA*dT*dT*dG*dA*dG*dT*dT*dA*eT*eG*eT*eA*e[5mC])	induce apoptosis
SEQ ID NO 519: gapmer of Tables 9-12 having this SEQ ID NO (antisense eG*eG*eG*e[5mC]*e[5mC]*dT*dA*dT*d[5mC]*d[5mC]*dA*dA*dA*dG*dT*eG*eA*e[5mC]*eA*eG)	induce apoptosis
SEQ ID NO 522: gapmer of Tables 9-12 having this SEQ ID NO (antisense eA*eA*eT*eT*eG*dT*dA*dT*dG*dA*d[5mC]*dA*dT*dT*dA*eA*eA*eT*e[5mC]*eA)	prevent or have a protective effect from apoptosis
TGCTGACTGCTCGCCCTTGC (antisense; same sequence listed as MOE 5-10-5 gapmer and as uniform MOE, further chemistry not given here) [ISIS 328641]	induce apoptosis
TTGTATGGACATTTAAATCA (antisense; same sequence listed as MOE 5-10-5 gapmer and as uniform MOE, further chemistry not given here) [ISIS 328692]	induce apoptosis
SEQ ID NO 544: gapmer of Tables 9-12 having this SEQ ID NO (eT*e[5mC]*eT*eA*eA*dG*dG*dG*dG*dT*d[5mC]*dA*d[5mC]*dA*dG*eA*eA*eG*eG*eT)	induce apoptosis
TGCCATGAGATTCAACAGTC (2'-MOE gapmer, phosphorothioate, chemistry not fully specified) [ISIS 328415]	induce apoptosis
